Assay results from patent publication US11466019B2, “Triazolo[4,5-d] pyramidine derivatives and their use as purine receptor antagonists” (Vernalis (R&D) Limited, priority 2008, dated 2022).
Read-outs that look alike come from different tables or passages of the source.

Legend:
[1] = system: haloperidol-induced deficits in locomotor activity in mice; assay: Haloperidol-induced hypolocomotion model (HaloLMA); type: in vivo; conditions: female TO mice, intraperitoneal, haloperidol 0.2 mg/kg
Description: Evaluation of Potential Anti-Parkinsonian Activity In Vivo: Haloperidol-Induced Hypolocomotion Model
This approach is also considered a valid method for screening drugs with potential antiparkinsonian effects. Thus, the ability of novel adenosine antagonists to block haloperidol-induced deficits in locomotor activity in mice can be used to assess both in vivo and potential antiparkinsonian efficacy.
Female TO mice (25-30 g) are used for all experiments. Animals are housed in groups of 8 (cage size-40 cm (width) by 40 cm (length) by 20 cm (height)) under 12 hour light/dark cycle (lights on 08:00), in a temperature (20±2° C.) and humidity (55±15%) controlled environment. Animals have free access to food and water, and are allowed at least 7 days to acclimatize after delivery before experimental use.
Liquid injectable haloperidol (e.g., 1 mL Serenance ampoules from Baker Norton, Harlow, Essex, each containing haloperidol BP 5 mg) are diluted to a final concentration of 0.02 mg/mL using saline. Test compounds are typically prepared as aqueous suspensions in 8% Tween. All compounds are administered intraperitoneally in a volume of 10 mL/kg.
1.5 hours before testing, mice are administered 0.2 mg/kg haloperidol, a dose that reduces baseline locomotor activity by at least 50%. Test substances are typically administered 5-60 minutes prior to testing. The animals are then placed individually into clean, clear polycarbonate cages (20 cm (width) by 40 cm (length) by 20 cm (height), with a flat perforated, Perspex lid). Horizontal locomotor activity is determined by placing the cages within a frame containing a 3 by 6 array of photocells linked to a computer, which tabulates beam breaks. Mice are left undisturbed to explore for 1 hour, and the number of beams breaks made during this period serves as a record of locomotor activity which is compared with data for control animals for statistically significant differences.
A number of the exemplified compounds of the present invention were tested in this assay and the results obtained are shown in Table 3, below.

hA2B receptors = biological target: T1, hA2B receptors (Homo sapiens, UniProt P29275); assay: Adenosine receptor binding: binding affinities at hA2B receptors ([3H]-ZM241385 displacement); conditions: for Ki: read-out: Binding Affinity hA2B-Ki; for Binding Selectivity A2b/A2a: ratio of Ki values
T1 construct: host or cells: HEK-293
T1 sequence (P29275 1-332): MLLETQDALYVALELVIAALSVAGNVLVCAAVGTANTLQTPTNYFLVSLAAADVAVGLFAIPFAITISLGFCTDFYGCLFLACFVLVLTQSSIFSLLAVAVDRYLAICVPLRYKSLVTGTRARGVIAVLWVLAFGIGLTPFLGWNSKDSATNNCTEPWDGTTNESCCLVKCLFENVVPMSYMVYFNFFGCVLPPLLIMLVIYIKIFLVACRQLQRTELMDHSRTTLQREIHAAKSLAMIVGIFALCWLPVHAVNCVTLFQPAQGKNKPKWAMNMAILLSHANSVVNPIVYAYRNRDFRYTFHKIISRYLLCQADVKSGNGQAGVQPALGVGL

[2] = biological target: T2, human adenosine A1 receptors (Homo sapiens, UniProt P30542); assay: Adenosine receptor binding: binding affinities at hA1 receptors ([3H]DPCPX displacement); conditions: for Ki: read-out: Binding Affinity hA1-Ki; for Binding Selectivity A1/A2a: ratio of Ki values
T2 construct: expressed in transfected cells; host or cells: CHO-K1
T2 sequence (P30542 1-326): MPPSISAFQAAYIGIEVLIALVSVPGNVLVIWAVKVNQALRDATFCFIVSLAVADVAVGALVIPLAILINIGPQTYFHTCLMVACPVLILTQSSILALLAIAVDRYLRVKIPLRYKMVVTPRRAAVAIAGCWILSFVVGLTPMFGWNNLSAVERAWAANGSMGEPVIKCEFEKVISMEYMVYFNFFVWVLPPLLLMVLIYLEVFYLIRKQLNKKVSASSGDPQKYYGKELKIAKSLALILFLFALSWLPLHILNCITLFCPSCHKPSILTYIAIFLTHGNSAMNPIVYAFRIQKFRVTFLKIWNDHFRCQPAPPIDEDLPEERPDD
Experimental: Adenosine Receptor Binding: Binding Affinities at hA1 Receptors
The resultant homogenate was kept for immediate use in the binding.
(§1) Binding assays were performed in a total volume of 250 μL, containing [^3H]-DPCPX (3.0 nM), membranes and additional drugs. Total binding was determined using drug dilution buffer (50 mM Tris-HCl pH:7.5, 10 mM MgCl2, 5% DMSO). Non-specific binding was determined using 300 μM N6-cyclohexyladenosine (CHA). […] Filters were left to dry overnight, and Microscint-0 scintillation fluid was then added to the filters. The filters were then left for at least 2 hours before the radioactivity was assessed using a Canberra Packard TopCount microplate scintillation counter.
To determine the free ligand concentration, three vials were counted with 25 μL of [^3H]DPCPX containing 4 mL of Ultima-Gold MV scintillant on a Beckman LS6500 multi-purpose scintillation counter.
(§2) Data was analysed using a 4 parameter logistical equation and non-linear regression which yields affinity constants (pIC50), and slope parameters:
(§3) [formula] where E is the quantity of binding and [A] is the competitor concentration. The Ki is then determined using the Cheng-Prusoff equation: […]

[3] = biological target: T3, human adenosine A3 receptors (Homo sapiens, UniProt P0DMS8); assay: Adenosine receptor binding: binding affinities at hA3 receptors ([125I]-AB MECA displacement); conditions: for Binding Selectivity A3/A2a: ratio of Ki values; for Ki: read-out: Binding Affinity hA3-Ki
T3 construct: expressed in transfected cells; host or cells: CHO-K1
T3 sequence (P0DMS8 1-318): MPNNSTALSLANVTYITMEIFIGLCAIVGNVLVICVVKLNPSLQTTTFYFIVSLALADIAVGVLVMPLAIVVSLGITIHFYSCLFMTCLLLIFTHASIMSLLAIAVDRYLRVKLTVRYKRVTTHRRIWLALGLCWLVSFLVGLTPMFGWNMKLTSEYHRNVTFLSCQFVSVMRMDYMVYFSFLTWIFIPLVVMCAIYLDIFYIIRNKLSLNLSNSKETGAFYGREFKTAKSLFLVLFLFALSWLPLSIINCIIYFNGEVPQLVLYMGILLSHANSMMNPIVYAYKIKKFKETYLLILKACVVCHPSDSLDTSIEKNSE
Experimental: [formula] Adenosine Receptor Binding: Binding Affinities at hA3 Receptors
The resultant homogenate was kept for immediate use in the binding assay.
as §1, with “Total” for “Binding assays were performed in a total volume of 250 μL, containing [^3H]-DPCPX (3.0 nM), membranes and additional drugs. Total”, “pH 7.5,” for “pH:7.5,”, “10” for “300”, “IB-MECA.” for “N6-cyclohexyladenosine (CHA).”
as §2, §3

[4] = biological target: T4, human adenosine A2A receptors (Homo sapiens, UniProt P29274); assay: Adenosine receptor binding: binding affinities at hA2A receptors ([3H]CGS-21680 displacement); conditions: read-out: Binding Affinity hA2A-Ki
T4 construct: host or cells: HEK-293
Experimental: Adenosine Receptor Binding: Binding Affinities at hA2A Receptors
as §1, with “The resultant homogenate was kept for immediate use in the binding assay. Binding” for “Binding”, “[^3H]-CGS21680 (20.0” for “[^3H]-DPCPX (3.0”, “pH 7.5,” for “pH:7.5,”, “CHA.” for “N6-cyclohexyladenosine (CHA).”
To determine the free ligand concentration, three vials were counted with 25 μL of [^3H]CGS21680 containing 4 mL of Ultima-Gold MV scintillant on a Beckman LS6500 multi-purpose scintillation counter.
as §2, §3

[5] = Table 1, [3H]-ZM241385 displacement, HEK-293 membranes
[6] = Table 1, [3H]DPCPX displacement, CHO-K1 membranes
[7] = Table 1, [3H]CGS-21680 displacement, HEK-293 membranes
[8] = Table 1, [125I]-AB MECA displacement, CHO-K1 membranes
[9] = Table 2, comparative compounds of WO 02/055083

T4 sequence (P29274 whole entry): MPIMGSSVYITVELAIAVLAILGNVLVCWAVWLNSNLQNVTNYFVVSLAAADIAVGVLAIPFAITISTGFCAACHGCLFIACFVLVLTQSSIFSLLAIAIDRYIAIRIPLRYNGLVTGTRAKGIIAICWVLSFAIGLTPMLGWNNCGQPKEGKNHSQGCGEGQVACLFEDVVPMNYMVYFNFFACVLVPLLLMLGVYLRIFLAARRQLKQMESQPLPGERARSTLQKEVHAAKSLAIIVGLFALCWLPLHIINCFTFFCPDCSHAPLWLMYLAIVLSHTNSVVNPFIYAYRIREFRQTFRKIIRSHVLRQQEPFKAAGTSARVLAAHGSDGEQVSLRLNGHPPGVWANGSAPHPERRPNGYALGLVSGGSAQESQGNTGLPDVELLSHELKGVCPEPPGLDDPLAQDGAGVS

SMILES | Ki (hA2B receptors; [5]) | Binding Selectivity A2b/A2a (hA2B receptors; Table 1) | Ki [2, 6] | Binding Selectivity A1/A2a ([2]; Table 1) | Binding Selectivity A3/A2a ([3]; Table 1) | Ki [4, 7] | Ki [3, 8] | Ki (hA2B receptors; [9]) | Binding Selectivity A2b/A2a (hA2B receptors; Table 2) | Ki [2, 9] | Binding Selectivity A1/A2a ([2]; Table 2) | Ki [3, 9] | Binding Selectivity A3/A2a ([3]; Table 2) | Ki [4, 9] | In Vivo activity HaloLMA MED [1]
Cc1ccc(-c2nc(N)nc3c2nnn3Cc2cccc(CO[C@H]3CCOC3)n2)o1 [Example 1, S-7-(5-methylfuran-2-yl)-3-(6-[tetrahydrofuran-3-yl]oxymethylpyrid-2-ylmethyl)-3H-[1,2,3]triazolo[4,5-d]pyrimidin-5-amine] |  |  |  |  |  |  |  |  |  |  |  |  |  |  | 0.3 mg/kg
Nc1nc(-c2ccccc2)c2nnn(Cc3cccc(C4(O)CCC4)n3)c2n1 [Example 11, 7-phenyl-3-(6-[1-hydroxycyclobutyl]pyrid-2-ylmethyl)-3H-[1,2,3]triazolo[4,5-d]pyrimidin-5-amine] | 3.27 µM | 634 | 0.32 µM | 62 | 836 | 0.0052 µM | 4.3 µM |  |  |  |  |  |  |  | 
COc1cccc(-c2nc(N)nc3c2nnn3Cc2cccc(C3(O)CCC3)n2)c1 [Example 17, 7-(3-methoxyphenyl)-3-(6-[1-hydroxycyclobutyl]pyrid-2-ylmethyl)-3H-[1,2,3]triazolo[4,5-d]pyrimidin-5-amine] | 4.69 µM | 472 | 0.386 µM | 39 | 196 | 0.0099 µM | 1.95 µM |  |  |  |  |  |  |  | 
N#Cc1cccc(-c2nc(N)nc3c2nnn3Cc2cccc(C3(O)CCCC3)n2)c1 [Example 21, 7-(3-cyanophenyl)-3-(6-[1-hydroxy-1-cyclopentyl]pyrid-2-ylmethyl)-3H-[1,2,3]triazolo[4,5-d]pyrimidin-5-amine] | 2.05 µM | 86 | 2.39 µM | 100 |  | 0.0239 µM |  |  |  |  |  |  |  |  | 
N#Cc1cccc(-c2nc(N)nc3c2nnn3Cc2cccc(C3(O)CCC3)n2)c1 [Example 23, 7-(3-cyanophenyl)-3-(6-[1-hydroxycyclobutyl]pyrid-2-ylmethyl)-3H-[1,2,3]triazolo[4,5-d]pyrimidin-5-amine] | 6.82 µM | 462 | 1.33 µM | 90 |  | 0.0148 µM |  |  |  |  |  |  |  |  | 
Nc1cccc(Cn2nnc3c(-c4ccccc4)nc(N)nc32)c1 [WO 02/055083 Example 151, 3-(3-aminobenzyl)-7-phenyl-3H-[1,2,3]triazolo[4,5-d]pyrimidine-5-amine, reference compound] |  |  |  |  |  |  |  | 0.276 µM | 52 | 0.102 µM | 19 | 0.831 µM | 156 | 0.0053 µM | 

Now from value to compound, other results behind:

Ki (hA2B receptors; [5]) | Binding Selectivity A2b/A2a (hA2B receptors; Table 1) | Ki [2, 6] | Binding Selectivity A1/A2a ([2]; Table 1) | Binding Selectivity A3/A2a ([3]; Table 1) | Ki [4, 7] | Ki [3, 8] | Ki (hA2B receptors; [9]) | Binding Selectivity A2b/A2a (hA2B receptors; Table 2) | Ki [2, 9] | Binding Selectivity A1/A2a ([2]; Table 2) | Ki [3, 9] | Binding Selectivity A3/A2a ([3]; Table 2) | Ki [4, 9] | SMILES | In Vivo activity HaloLMA MED [1]
1.24 µM | 93 | 0.731 µM | 54 | 634 | 0.0134 µM |  |  |  |  |  |  |  |  | Nc1nc(-c2ccccc2)c2nnn(Cc3cccc(CO[C@H]4CCOC4)n3)c2n1 [Example 7, S-7-phenyl-3-(6-[tetrahydrofuran-3-yl]oxymethylpyrid-2-ylmethyl)-3H-[1,2,3]triazolo[4,5-d]pyrimidin-5-amine] | 
 |  |  |  |  |  |  | 0.231 µM | 183 | 0.0841 µM | 67 | 0.656 µM | 519 | 0.0013 µM | COCc1cccc(Cn2nnc3c(-c4ccc(C)o4)nc(N)nc32)n1 [WO 02/055083 Example 183, 3-(6-methoxymethyl-2-pyridylmethyl)-7-(5-methyl-2-furyl)-3H-[1,2,3]triazolo[4,5-d]pyrimidine-5-amine, reference compound] | 
 |  |  |  |  |  |  | 0.271 µM | 100 | 0.585 µM | 216 | 1.7 µM | 625 | 0.0027 µM | Cl.Nc1nc(-c2ccco2)c2nnn(Cc3cccc(CO)n3)c2n1 [WO 02/055083 Example 213, 7-(2-furyl)-3-(6-hydroxymethyl-2-pyridylmethyl)-3H-[1,2,3]triazolo[4,5-d]pyrimidine-5-amine hydrochloride, reference compound] | 
 |  |  |  |  |  |  | 0.382 µM | 131 | 0.153 µM | 53 | 0.475 µM | 163 | 0.0029 µM | CC(C)COCc1cccc(Cn2nnc3c(-c4ccco4)nc(N)nc32)n1 [WO 02/055083 Example 217, 7-(2-furyl)-3-(6-isobutyloxymethyl-2-pyridylmethyl)-3H-[1,2,3]triazolo[4,5-d]pyrimidine-5-amine, reference compound] | 
 |  |  |  |  |  |  | 0.454 µM | 151 | 0.276 µM | 92 | 1.46 µM | 487 | 0.003 µM | CC(C)OCc1cccc(Cn2nnc3c(-c4ccco4)nc(N)nc32)n1 [WO 02/055083 Example 247, 7-(2-furyl)-3-(6-isopropoxymethyl-2-pyridylmethyl)-3H-[1,2,3]triazolo[4,5-d]pyrimidine-5-amine, reference compound] | 
